Where two headings read alike, the source gives them in different places.
Experiments:
Format in all cases: in vivo
Spodoptera littoralis = Spodoptera littoralis (Egyptian cotton leaf worm) cotton leaf disc test; conditions: foliar, 72 h, read-out: control (at least one of mortality, anti-feedant effect, and growth inhibition)
Procedure: Spodoptera littoralis (Egyptian Cotton Leaf Worm)
Cotton leaf discs were placed on agar in 24-well microtiter plates and sprayed with aqueous test solutions prepared from 10′000 ppm DMSO stock solutions. After drying the leaf discs were infested with five L1 larvae. The samples were assessed for mortality, anti-feedant effect, and growth inhibition in comparison to untreated samples 3 days after infestation. Control of Spodoptera littoralis by a test sample is when at least one of mortality, anti-feedant effect, and growth inhibition is higher than the untreated sample.

Plutella xylostella = Plutella xylostella (diamond back moth) artificial diet test; conditions: 120 h, read-out: effect in at least one of the two categories (mortality or growth inhibition)
Procedure: Plutella xylostella (Diamond Back Moth):
24-well microtiter plates with artificial diet were treated with aqueous test solutions prepared from 10′000 ppm DMSO stock solutions by pipetting. After drying, the plates were infested with L2 larvae (10 to 15 per well). The samples were assessed for mortality and growth inhibition in comparison to untreated samples 5 days after infestation. The following compounds gave an effect of at least 80% in at least one of the two categories (mortality or growth inhibition) at an application rate of 200 ppm: […]

Diabrotica Balteata = assay: Diabrotica balteata (corn root worm) maize sprout test; conditions: 96 h, read-out: effect in at least one of the two categories (mortality or growth inhibition)
Procedure: Diabrotica Balteata, (Corn Root Worm)
Maize sprouts, placed on an agar layer in 24-well microtiter plates were treated with aqueous test solutions prepared from 10′000 ppm DMSO stock solutions by spraying. After drying, the plates were infested with L2 larvae (6 to 10 per well). The samples were assessed for mortality and growth inhibition in comparison to untreated samples 4 days after infestation. The following compounds gave an effect of at least 80% in at least one of the two categories (mortality or growth inhibition) at an application rate of 200 ppm: […]

Thrips tabaci = Thrips tabaci (onion thrips) sunflower leaf disc test; conditions: foliar, 144 h
Procedure: Thrips tabaci (Onion Thrips):
Sunflower leaf discs were placed on agar in 24-well microtiter plates and sprayed with aqueous test solutions prepared from 10′000 ppm DMSO stock solutions. After drying the leaf discs were infested with a thrips population of mixed ages. The samples were assessed for mortality 6 days after infestation.

Tetranychus urticae = Tetranychus urticae (two-spotted spider mite) bean leaf disc test; conditions: foliar, 192 h
Procedure: Tetranychus urticae (Two-Spotted Spider Mite):
Bean leaf discs on agar in 24-well microtiter plates were sprayed with aqueous test solutions prepared from 10′000 ppm DMSO stock solutions. After drying the leaf discs were infested with a mite population of mixed ages. The samples were assessed for mortality on mixed population (mobile stages) 8 days after infestation.

Myzus persicae = Myzus persicae (green peach aphid) sunflower leaf disc test; conditions: foliar, 144 h
Procedure: Myzus persicae (Green Peach Aphid):
Sunflower leaf discs were placed on agar in a 24-well microtiter plate and sprayed with test solutions at an application rate of 200 ppm. After drying, the leaf discs were infested with an aphid population of mixed ages. After an incubation period of 6 days after treatment, samples were checked for mortality. The following compounds gave at least 80% mortality of Myzus persicae: […]

Cc1cc(C2=NO[C@@](c3cc(Cl)c(F)c(Cl)c3)(C(F)(F)F)C2)ccc1C(=O)NC1CC(OCC(C)C)=NO1 (stereo partly shown) [Compound A073]
≥ 80%: percent control (mortality, anti-feedant effect or growth inhibition) at 200 ppm (Spodoptera littoralis) | percent effect (mortality or growth inhibition) at 200 ppm (Plutella xylostella) | percent effect (mortality or growth inhibition) at 200 ppm (Diabrotica Balteata) | mortality at 200 ppm (Thrips tabaci) | mortality at 200 ppm (Tetranychus urticae) | mortality at 200 ppm (Myzus persicae)

Cc1cc(C2=NO[C@@](c3cc(Cl)c(F)c(Cl)c3)(C(F)(F)F)C2)ccc1C(=O)NC1CC(C=O)=NO1 (stereo partly shown) [Compound A099]
≥ 80%: percent control (mortality, anti-feedant effect or growth inhibition) at 200 ppm (Spodoptera littoralis) | percent effect (mortality or growth inhibition) at 200 ppm (Plutella xylostella) | percent effect (mortality or growth inhibition) at 200 ppm (Diabrotica Balteata) | mortality at 200 ppm (Thrips tabaci) | mortality at 200 ppm (Tetranychus urticae) | mortality at 200 ppm (Myzus persicae)

C#CCCCOC1=NOC(NC(=O)c2ccc(C3=NO[C@@](c4cc(Cl)c(Cl)c(Cl)c4)(C(F)(F)F)C3)cc2C)C1 (stereo partly drawn) [Compound A113, 2-methyl-N-(3-pent-4-ynoxy-4,5-dihydroisoxazol-5-yl)-4-[(5S)-5-(3,4,5-trichlorophenyl)-5-(trifluoromethyl)-4H-isoxazol-3-yl]benzamide]
≥ 80%: percent control (mortality, anti-feedant effect or growth inhibition) at 200 ppm (Spodoptera littoralis) | percent effect (mortality or growth inhibition) at 200 ppm (Plutella xylostella) | percent effect (mortality or growth inhibition) at 200 ppm (Diabrotica Balteata) | mortality at 200 ppm (Thrips tabaci) | mortality at 200 ppm (Tetranychus urticae) | mortality at 200 ppm (Myzus persicae)

Cc1cc(C2=NO[C@@](c3cc(Cl)c(F)c(Cl)c3)(C(F)(F)F)C2)ccc1C(=O)NC1CC(OC/C=C/C(F)(F)F)=NO1 (stereo partly drawn) [Compound A084, 4-[(5S)-5-(3,5-dichloro-4-fluoro-phenyl)-5-(trifluoromethyl)-4H-isoxazol-3-yl]-2-methyl-N-[3-[(E)-4,4,4-trifluorobut-2-enoxy]-4,5-dihydroisoxazol-5-yl]benzamide]
≥ 80%: percent control (mortality, anti-feedant effect or growth inhibition) at 200 ppm (Spodoptera littoralis) | percent effect (mortality or growth inhibition) at 200 ppm (Plutella xylostella) | percent effect (mortality or growth inhibition) at 200 ppm (Diabrotica Balteata) | mortality at 200 ppm (Thrips tabaci) | mortality at 200 ppm (Tetranychus urticae) | mortality at 200 ppm (Myzus persicae)

C=C(C)COC1=NOC(NC(=O)c2ccc(C3=NO[C@@](c4cc(Cl)c(F)c(Cl)c4)(C(F)(F)F)C3)cc2C)C1 (stereo partly shown) [Compound A080]
≥ 80%: percent control (mortality, anti-feedant effect or growth inhibition) at 200 ppm (Spodoptera littoralis) | percent effect (mortality or growth inhibition) at 200 ppm (Plutella xylostella) | percent effect (mortality or growth inhibition) at 200 ppm (Diabrotica Balteata) | mortality at 200 ppm (Thrips tabaci) | mortality at 200 ppm (Tetranychus urticae) | mortality at 200 ppm (Myzus persicae)

COC1=NO[C@@H](NC(=O)c2ccc(C3=NO[C@@](c4cc(Cl)c(Cl)c(Cl)c4)(C(F)(F)F)C3)cc2C)C1 (single isomer, unassigned) [Compound A149]
≥ 80%: percent control (mortality, anti-feedant effect or growth inhibition) at 200 ppm (Spodoptera littoralis) | percent effect (mortality or growth inhibition) at 200 ppm (Plutella xylostella) | percent effect (mortality or growth inhibition) at 200 ppm (Diabrotica Balteata) | mortality at 200 ppm (Thrips tabaci) | mortality at 200 ppm (Tetranychus urticae) | mortality at 200 ppm (Myzus persicae)

CCC1=NOC(NC(=O)c2ccc(C3=NO[C@@](c4cc(Cl)c(F)c(Cl)c4)(C(F)(F)F)C3)cc2C)C1 (stereo partly drawn) [Compound A026, 4-[(5S)-5-(3,5-dichloro-4-fluoro-phenyl)-5-(trifluoromethyl)-4H-isoxazol-3-yl]-N-(3-ethyl-4,5-dihydroisoxazol-5-yl)-2-methyl-benzamide]
≥ 80%: percent control (mortality, anti-feedant effect or growth inhibition) at 200 ppm (Spodoptera littoralis) | percent effect (mortality or growth inhibition) at 200 ppm (Plutella xylostella) | percent effect (mortality or growth inhibition) at 200 ppm (Diabrotica Balteata) | mortality at 200 ppm (Thrips tabaci) | mortality at 200 ppm (Tetranychus urticae) | mortality at 200 ppm (Myzus persicae)

C=C(F)COC1=NOC(NC(=O)c2ccc(C3=NO[C@@](c4cc(Cl)c(F)c(Cl)c4)(C(F)(F)F)C3)cc2C)C1 (stereo partly shown) [Compound A081]
≥ 80%: percent control (mortality, anti-feedant effect or growth inhibition) at 200 ppm (Spodoptera littoralis) | percent effect (mortality or growth inhibition) at 200 ppm (Plutella xylostella) | percent effect (mortality or growth inhibition) at 200 ppm (Diabrotica Balteata) | mortality at 200 ppm (Thrips tabaci) | mortality at 200 ppm (Tetranychus urticae) | mortality at 200 ppm (Myzus persicae)

Cc1cc(C2=NO[C@@](c3cc(Cl)c(Cl)c(Cl)c3)(C(F)(F)F)C2)ccc1C(=O)NC1CC(OCC(=O)N(C)C)=NO1 (stereo partly drawn) [Compound A114, N-[3-[2-(dimethylamino)-2-oxo-ethoxy]-4,5-dihydroisoxazol-5-yl]-2-methyl-4-[(5S)-5-(3,4,5-trichlorophenyl)-5-(trifluoromethyl)-4H-isoxazol-3-yl]benzamide]
≥ 80%: percent control (mortality, anti-feedant effect or growth inhibition) at 200 ppm (Spodoptera littoralis) | percent effect (mortality or growth inhibition) at 200 ppm (Plutella xylostella) | mortality at 200 ppm (Thrips tabaci) | mortality at 200 ppm (Tetranychus urticae) | mortality at 200 ppm (Myzus persicae)

Cc1cc(C2=NO[C@@](c3cc(Cl)c(F)c(Cl)c3)(C(F)(F)F)C2)ccc1C(=O)N(C(=O)OC(C)(C)C)C1CC(Cl)=NO1 (stereo partly drawn) [Compound A067, tert-butyl N-(3-chloro-4,5-dihydroisoxazol-5-yl)-N-[4-[(5S)-5-(3,5-dichloro-4-fluoro-phenyl)-5-(trifluoromethyl)-4H-isoxazol-3-yl]-2-methyl-benzoyl]carbamate]
≥ 80%: percent control (mortality, anti-feedant effect or growth inhibition) at 200 ppm (Spodoptera littoralis) | percent effect (mortality or growth inhibition) at 200 ppm (Plutella xylostella) | percent effect (mortality or growth inhibition) at 200 ppm (Diabrotica Balteata) | mortality at 200 ppm (Thrips tabaci) | mortality at 200 ppm (Tetranychus urticae)

CCOC1=NOC(N(C(=O)c2ccc(C3=NO[C@@](c4cc(Cl)c(F)c(Cl)c4)(C(F)(F)F)C3)cc2C)[C@H](C)c2ccc(OC)cc2)C1 (stereo partly shown) [Compound A131]
≥ 80%: percent control (mortality, anti-feedant effect or growth inhibition) at 200 ppm (Spodoptera littoralis; application rate 200 ppm, cotton leaf discs, L1 larvae, 3 days after infestation) | percent effect (mortality or growth inhibition) at 200 ppm (Plutella xylostella; application rate 200 ppm, artificial diet, L2 larvae, 5 days after infestation) | percent effect (mortality or growth inhibition) at 200 ppm (Diabrotica Balteata; application rate 200 ppm, maize sprouts, L2 larvae, 4 days after infestation) | mortality at 200 ppm (Thrips tabaci; application rate 200 ppm, sunflower leaf discs, population of mixed ages, 6 days after infestation, read-out: mortality) | mortality at 200 ppm (Tetranychus urticae; application rate 200 ppm, bean leaf discs, mixed population (mobile stages), 8 days after infestation, read-out: mortality)

Cc1cc(C2=NO[C@@](c3cc(Cl)cc(Cl)c3)(C(F)(F)F)C2)ccc1C(=O)N[C@H]1CC(OCC(F)(F)F)=NO1 (single isomer, unassigned) [Compound A157]
≥ 80%: percent control (mortality, anti-feedant effect or growth inhibition) at 200 ppm (Spodoptera littoralis) | percent effect (mortality or growth inhibition) at 200 ppm (Plutella xylostella) | percent effect (mortality or growth inhibition) at 200 ppm (Diabrotica Balteata) | mortality at 200 ppm (Thrips tabaci) | mortality at 200 ppm (Tetranychus urticae)

CSC1=NOC(NC(=O)c2ccc(C3=NO[C@@](c4cc(Cl)c(SC)c(Cl)c4)(C(F)(F)F)C3)cc2C)C1 (stereo partly drawn) [Compound A020, 4-[(5S)-5-(3,5-dichloro-4-methylsulfanyl-phenyl)-5-(trifluoromethyl)-4H-isoxazol-3-yl]-2-methyl-N-(3-methylsulfanyl-4,5-dihydroisoxazol-5-yl)benzamide]
≥ 80%: percent control (mortality, anti-feedant effect or growth inhibition) at 200 ppm (Spodoptera littoralis) | percent effect (mortality or growth inhibition) at 200 ppm (Plutella xylostella) | percent effect (mortality or growth inhibition) at 200 ppm (Diabrotica Balteata) | mortality at 200 ppm (Thrips tabaci) | mortality at 200 ppm (Tetranychus urticae)
